In PubChem BioAssay AID1259407 (Chemical Carcinogenesis Research Information System (CCRIS), 2018) one finds mutagenic call data, which are given here for four compounds.

The source made the active and inactive calls. The rule behind the calls is not given here.

This data set deals with CCRIS mutagenicity, Ames/micronucleus/aberration tests. Description: CCRIS mutagenicity studies.
Where [1] appears, read: Test System: AMES SALMONELLA TYPHIMURIUM, Strain/Indicator: TA98, Metabolic Activation: NONE, Method: STANDARD PLATE.
The mark [2] stands for this setting: Test System: AMES SALMONELLA TYPHIMURIUM, Strain/Indicator: TA98, Metabolic Activation: RAT, LIVER, S-9, AROCLOR 1254, Method: PREINCUBATION
Setting [3] is: Test System: AMES SALMONELLA TYPHIMURIUM, Strain/Indicator: TA98, Metabolic Activation: RAT, LIVER, S-9, AROCLOR 1254, Method: STANDARD PLATE.
Setting [4] is: Test System: AMES SALMONELLA TYPHIMURIUM, Strain/Indicator: TA100, Metabolic Activation: NONE, Method: STANDARD PLATE.
The mark [5] stands for this setting: Test System: AMES SALMONELLA TYPHIMURIUM, Strain/Indicator: TA100, Metabolic Activation: RAT, LIVER, S-9, AROCLOR 1254, Method: STANDARD PLATE.

For the compound `OCCNc1ccc(N=Nc2ccc(N(CCO)CCO)cc2)cc1`, the mutagenic call by setting is: (Test System: AMES SALMONELLA TYPHIMURIUM, Strain/Indicator: TA98, Metabolic Activation: HAMSTER, LIVER, S-9, AROCLOR 1254, Method: STANDARD PLATE) “inactive; negative”; under setting [1], “inactive; negative”; under setting [2], “inactive; negative”; under setting [3], “inactive; negative”; under setting [4], “inactive; negative”; under setting [5], “inactive; negative”. In addition, the mutagenic call reads like this: (Test System: AMES SALMONELLA TYPHIMURIUM, Strain/Indicator: TA1535, Metabolic Activation: NONE, Method: STANDARD PLATE) “inactive; negative”; (Test System: AMES SALMONELLA TYPHIMURIUM, Strain/Indicator: TA1535, Metabolic Activation: RAT, LIVER, S-9, AROCLOR 1254, Method: STANDARD PLATE) “inactive; negative”; (Test System: AMES SALMONELLA TYPHIMURIUM, Strain/Indicator: TA1537, Metabolic Activation: NONE, Method: STANDARD PLATE) “inactive; negative”; (Test System: AMES SALMONELLA TYPHIMURIUM, Strain/Indicator: TA1537, Metabolic Activation: RAT, LIVER, S-9, AROCLOR 1254, Method: STANDARD PLATE) “inactive; negative”; (Test System: AMES SALMONELLA TYPHIMURIUM, Strain/Indicator: TA1538, Metabolic Activation: NONE, Method: STANDARD PLATE) “inactive; negative”; (Test System: AMES SALMONELLA TYPHIMURIUM, Strain/Indicator: TA1538, Metabolic Activation: RAT, LIVER, S-9, AROCLOR 1254, Method: STANDARD PLATE) “inactive; negative”.

On to `CN=C1C=CC(=C(c2ccc(NC)cc2)c2ccc(N(C)C)cc2)C=C1`, for which the mutagenic call (Test System: AMES SALMONELLA TYPHIMURIUM, Strain/Indicator: TA97, Metabolic Activation: NONE, Method: STANDARD PLATE) was “inactive; negative”; the mutagenic call (Test System: AMES SALMONELLA TYPHIMURIUM, Strain/Indicator: TA97, Metabolic Activation: RAT, LIVER, S-9, AROCLOR 1254, Method: STANDARD PLATE) is “inactive; negative”; the mutagenic call under setting [1] was “inactive; negative”; the mutagenic call under setting [3] was “inactive; negative”; the mutagenic call under setting [4] was “inactive; negative”; the mutagenic call under setting [5] is “inactive; negative”. Also, the mutagenic call by setting is: (Test System: AMES SALMONELLA TYPHIMURIUM, Strain/Indicator: TA104, Metabolic Activation: NONE, Method: STANDARD PLATE) “inactive; negative”; (Test System: AMES SALMONELLA TYPHIMURIUM, Strain/Indicator: TA104, Metabolic Activation: RAT, LIVER, S-9, AROCLOR 1254, Method: STANDARD PLATE) “inactive; negative”.

On to `O=C(O)c1ccc([N+](=O)[O-])cc1[N+](=O)[O-]`, for which the mutagenic call (End Point: In vitro chromosomal aberrations, Test System: V79 Chinese hamster fibroblasts, Metabolic Activation: None) was “active; positive (structural changes)”; the mutagenic call (End Point: In vitro micronucleus, Test System: HepG2 human hepatoma cells, Metabolic Activation: None) is “active; positive”; the mutagenic call (Test System: AMES SALMONELLA TYPHIMURIUM, Strain/Indicator: TA98, Metabolic Activation: RAT, LIVER, S-9, AROCLOR, Method: PREINCUBATION) is “active; positive”; the mutagenic call (Test System: AMES SALMONELLA TYPHIMURIUM, Strain/Indicator: TA98, Metabolic Activation: RAT, LIVER, S-9, KANECHLOR 500, Method: PREINCUBATION) is “inactive; negative”; the mutagenic call (Test System: AMES SALMONELLA TYPHIMURIUM, Strain/Indicator: TA100, Metabolic Activation: RAT, LIVER, S-9, KANECHLOR 500, Method: PREINCUBATION) was “inactive; negative”; the mutagenic call (Test System: Ames Salmonella typhimurium, Strain/Indicator: TA98, Metabolic Activation: None, Method: Standard plate) is “active; positive”. Further, the mutagenic call was “active; positive” (Test System: Ames Salmonella typhimurium, Strain/Indicator: TA98, Metabolic Activation: Rat, Liver, S-9, Method: Standard plate); “active; positive, ta98nr is the nitroreductase-deficient derivative of ta98” (Test System: Ames Salmonella typhimurium, Strain/Indicator: TA98NR, Metabolic Activation: None, Method: Standard plate); “inactive; negative” (Test System: Ames Salmonella typhimurium, Strain/Indicator: TA100, Metabolic Activation: None, Method: Standard plate); “inactive; negative” (Test System: Ames Salmonella typhimurium, Strain/Indicator: TA100, Metabolic Activation: Rat, Liver, S-9, Method: Standard plate).

Turning to `COc1cc(CCCS(=O)(=O)O)ccc1O[C@H](Cc1cccc(OC)c1O)CS(=O)(=O)O`, the mutagenic call is, setting by setting: (Test System: AMES SALMONELLA TYPHIMURIUM, Strain/Indicator: TA98, Metabolic Activation: HAMSTER, LIVER, S-9, AROCLOR 1254, Method: PREINCUBATION) “inactive; negative”; (Test System: AMES SALMONELLA TYPHIMURIUM, Strain/Indicator: TA98, Metabolic Activation: NONE, Method: PREINCUBATION) “inactive; negative”; under setting [2], “inactive; negative”; (Test System: AMES SALMONELLA TYPHIMURIUM, Strain/Indicator: TA100, Metabolic Activation: HAMSTER, LIVER, S-9, AROCLOR 1254, Method: PREINCUBATION) “inactive; negative”; (Test System: AMES SALMONELLA TYPHIMURIUM, Strain/Indicator: TA100, Metabolic Activation: NONE, Method: PREINCUBATION) “inactive; negative”; (Test System: AMES SALMONELLA TYPHIMURIUM, Strain/Indicator: TA100, Metabolic Activation: RAT, LIVER, S-9, AROCLOR 1254, Method: PREINCUBATION) “inactive; negative”. Besides, the mutagenic call reads like this: (Test System: AMES SALMONELLA TYPHIMURIUM, Strain/Indicator: TA1535, Metabolic Activation: HAMSTER, LIVER, S-9, AROCLOR 1254, Method: PREINCUBATION) “inactive; negative”; (Test System: AMES SALMONELLA TYPHIMURIUM, Strain/Indicator: TA1535, Metabolic Activation: NONE, Method: PREINCUBATION) “inactive; negative”; (Test System: AMES SALMONELLA TYPHIMURIUM, Strain/Indicator: TA1535, Metabolic Activation: RAT, LIVER, S-9, AROCLOR 1254, Method: PREINCUBATION) “inactive; negative”; (Test System: AMES SALMONELLA TYPHIMURIUM, Strain/Indicator: TA1537, Metabolic Activation: HAMSTER, LIVER, S-9, AROCLOR 1254, Method: PREINCUBATION) “inactive; negative”; (Test System: AMES SALMONELLA TYPHIMURIUM, Strain/Indicator: TA1537, Metabolic Activation: NONE, Method: PREINCUBATION) “inactive; negative”; (Test System: AMES SALMONELLA TYPHIMURIUM, Strain/Indicator: TA1537, Metabolic Activation: RAT, LIVER, S-9, AROCLOR 1254, Method: PREINCUBATION) “inactive; negative”.
